From patent US12473296B2, “Perk inhibiting compounds” (HiberCell, Inc., priority 2019, dated 2025)
pIC50: −log10 of the molar value. Blank lines part the entries; values can stand above or below the molecule they belong to.

Tests used:
PERK = PERK (Homo sapiens (Human), UniProt Q9NZJ5); assay: PERK cellular assay (TR-FRET, HEK293-EGFP-eIF2α cells, tunicamycin-induced ER stress); assay type: cell-based; details: tunicamycin 2 hours, read-out: Cellular IC50 (μM) (EIF2a)
In short: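 After 2 h tunicamycin ([…]) stress following 30 min compound pretreatment at 37 °C, lysed HEK293-EGFP-eIF2α cells were read by TR-FRET. IC50 derived by 4-parameter logistic fitting of percent inhibition, DMSO-normalized, from 10-point 3-fold dilutions.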

[1] = target: EIF2AK3 (PERK) catalytic domain (amino acids 536-1116) (Homo sapiens (Human), UniProt Q9NZJ5); assay: PERK in vitro activity assay (isolated), TR-FRET kinase assay; details: isolated PERK enzyme, 1.5 μM ATP, GFP-eIF2a substrate; read-out: Biochemical IC50
In short: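 Human PERK catalytic domain (aa 536-1116) with 100-200 nM GFP-eIF2a in 50 mM HEPES pH 7.5, 10 mM MgCl2, 1.0 mM EGTA, 0.01% Brij-35; enzyme-started reaction run 45 min at room temperature. Stopped with 10 mM EDTA, 2 nM Tb-anti-phospho-eIF2a added for 90 min; IC50 from TR-FRET ratio by 4-parameter logistic fit.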

Chain of EIF2AK3 (PERK) catalytic domain (amino acids 536-1116) (Q9NZJ5 536-1116): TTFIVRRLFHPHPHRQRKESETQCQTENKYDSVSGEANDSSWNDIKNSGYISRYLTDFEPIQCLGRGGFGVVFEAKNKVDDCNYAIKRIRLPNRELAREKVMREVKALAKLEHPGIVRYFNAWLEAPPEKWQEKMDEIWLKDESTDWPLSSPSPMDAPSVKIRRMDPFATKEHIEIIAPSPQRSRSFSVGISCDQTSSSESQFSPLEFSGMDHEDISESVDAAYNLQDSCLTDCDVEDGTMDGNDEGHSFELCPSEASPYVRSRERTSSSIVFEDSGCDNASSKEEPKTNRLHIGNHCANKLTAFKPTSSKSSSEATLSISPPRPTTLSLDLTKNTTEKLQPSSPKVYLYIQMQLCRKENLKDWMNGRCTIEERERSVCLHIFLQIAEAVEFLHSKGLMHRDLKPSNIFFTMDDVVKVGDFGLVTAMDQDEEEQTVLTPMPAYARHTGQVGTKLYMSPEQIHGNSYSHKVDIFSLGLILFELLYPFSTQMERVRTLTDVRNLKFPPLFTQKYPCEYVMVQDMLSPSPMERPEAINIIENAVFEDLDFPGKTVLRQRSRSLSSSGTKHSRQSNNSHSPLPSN
Chain of PERK (Q9NZJ5 30-1116): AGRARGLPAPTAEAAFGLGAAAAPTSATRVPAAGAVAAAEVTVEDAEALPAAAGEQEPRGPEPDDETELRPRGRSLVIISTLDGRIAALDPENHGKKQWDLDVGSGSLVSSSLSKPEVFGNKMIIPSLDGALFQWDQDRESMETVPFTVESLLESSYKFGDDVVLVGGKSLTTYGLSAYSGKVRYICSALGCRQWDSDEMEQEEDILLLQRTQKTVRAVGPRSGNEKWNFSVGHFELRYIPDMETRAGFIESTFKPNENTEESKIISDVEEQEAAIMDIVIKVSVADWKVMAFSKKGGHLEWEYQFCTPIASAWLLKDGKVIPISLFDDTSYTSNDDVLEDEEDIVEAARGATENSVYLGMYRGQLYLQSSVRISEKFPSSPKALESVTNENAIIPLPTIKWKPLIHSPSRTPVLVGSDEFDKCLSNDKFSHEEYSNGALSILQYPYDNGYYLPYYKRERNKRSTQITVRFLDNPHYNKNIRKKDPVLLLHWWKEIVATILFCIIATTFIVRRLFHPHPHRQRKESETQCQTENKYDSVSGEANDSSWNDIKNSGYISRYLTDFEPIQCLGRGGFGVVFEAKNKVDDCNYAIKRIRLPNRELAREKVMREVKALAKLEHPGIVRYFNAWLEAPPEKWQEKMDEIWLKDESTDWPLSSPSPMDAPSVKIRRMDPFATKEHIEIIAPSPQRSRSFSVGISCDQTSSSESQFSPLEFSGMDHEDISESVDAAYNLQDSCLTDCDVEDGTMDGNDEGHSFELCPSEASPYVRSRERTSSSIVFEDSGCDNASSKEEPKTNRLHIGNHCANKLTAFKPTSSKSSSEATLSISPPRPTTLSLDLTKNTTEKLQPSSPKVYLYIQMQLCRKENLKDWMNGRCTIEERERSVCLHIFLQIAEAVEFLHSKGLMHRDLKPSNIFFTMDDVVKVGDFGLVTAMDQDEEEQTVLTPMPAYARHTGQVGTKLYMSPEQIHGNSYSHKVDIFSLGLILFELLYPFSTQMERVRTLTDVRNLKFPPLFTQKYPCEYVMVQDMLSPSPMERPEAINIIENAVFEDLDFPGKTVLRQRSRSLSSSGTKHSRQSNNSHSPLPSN

Structure (SMILES): CCNC(=O)c1cc(-c2ccc(NC(=O)C(O)c3cc(F)cc(F)c3)cc2C)cnc1N (single isomer, unassigned) [Example 12, 2-amino-5-(4-(2-(3,5-difluorophenyl)-2-hydroxyacetamido)-2-methylphenyl)-N-ethylnicotinamide]
IC50 (PERK): 0.026 to 0.05 µM
pIC50 [1]: 7.60 to 9.00

Structure (SMILES): CC(C)NC(=O)c1cc(-c2ccc(NC(=O)C(O)c3cc(F)cc(F)c3)cc2C(F)(F)F)cnc1N (stereo not shown) [Example 36, 2-amino-5-(4-(2-(3,5-difluorophenyl)-2-hydroxyacetamido)-2-(trifluoromethyl)phenyl)-N-isopropylnicotinamide]
IC50 (PERK): 0.051 to 0.1 µM
pIC50 [1]: 7.60 to 9.00

Structure (SMILES): CC(=O)N1CC(NC(=O)c2cc(-c3ccc(NC(=O)C(O)c4cc(F)cc(F)c4)cc3C)cnc2N)C1 (stereo not shown) [Example 30, N-(1-acetylazetidin-3-yl)-2-amino-5-(4-(2-(3,5-difluorophenyl)-2-hydroxyacetamido)-2-methylphenyl) nicotinamide]
IC50 (PERK): 0.501 to 1 µM
pIC50 [1]: 7.60 to 9.00

Structure (SMILES): CCc1cc(NC(=O)C(O)c2cc(F)cc(F)c2)ccc1-c1cnc(N)c(C(=O)NC2CC2)c1 (stereo not shown) [Example 102, 2-amino-N-cyclopropyl-5-(4-(2-(3,5-difluorophenyl)-2-hydroxyacetamido)-2-ethylphenyl) nicotinamide]
IC50 (PERK): 0.001 to 0.025 µM
pIC50 [1]: 7.60 to 9.00

Structure (SMILES): Cc1cc(NC(=O)C(O)c2cc(F)cc(F)c2)ccc1-c1cnc(N)c(C(=O)NCC(F)(F)F)c1 (single isomer, unassigned) [Example 18, 2-amino-5-(4-(2-(3,5-difluorophenyl)-2-hydroxyacetamido)-2-methylphenyl)-N-(2,2,2-trifluoroethyl) nicotinamide]
IC50 (PERK): 0.026 to 0.05 µM
pIC50 [1]: 7.60 to 9.00

Structure (SMILES): Cc1cc(NC(=O)C(O)c2cc(F)cc(F)c2)c(F)cc1-c1cnc(N)c(C(=O)NC(C)C)c1 (stereo not shown) [Example 126, 2-amino-5-(4-(2-(3,5-difluorophenyl)-2-hydroxyacetamido)-5-fluoro-2-methylphenyl)-N-isopropylnicotinamide]
IC50 (PERK): 0.101 to 0.25 µM
pIC50 [1]: 7.60 to 9.00

Structure (SMILES): Cc1cc(NC(=O)Cc2ccccc2C(F)(F)F)ccc1-c1cnc(N)c(C(=O)NC(C)C)c1 [Example 201, 2-amino-N-isopropyl-5-(2-methyl-4-(2-(2-(trifluoromethyl)phenyl)acetamido)phenyl)nicotinamide]
IC50 (PERK): 0.501 to 1 µM
pIC50 [1]: 7.00 to 7.29

Structure (SMILES): CCNC(=O)c1cc(-c2ccc(NC(=O)C(O)c3cc(F)cc(F)c3)cc2Cl)cnc1N (stereo not shown) [Example 82, 2-amino-5-(2-chloro-4-(2-(3,5-difluorophenyl)-2-hydroxyacetamido)phenyl)-N-ethylnicotinamide]
IC50 (PERK): 0.026 to 0.05 µM
pIC50 [1]: 7.60 to 9.00

Structure (SMILES): Cc1cc(NC(=O)Cc2ccccc2)ccc1-c1cnc(N)c(C(=O)NC(C)C)c1 [Example 187, 2-amino-N-isopropyl-5-(2-methyl-4-(2-phenylacetamido)phenyl)nicotinamide]
IC50 (PERK): 0.501 to 1 µM
pIC50 [1]: 7.00 to 7.29

Structure (SMILES): Cc1cc(NC(=O)C(O)c2cc(F)cc(F)c2)ccc1-c1cnc(N)c(C(=O)NCCO)c1 (stereo not shown) [Example 57, 2-amino-5-(4-(2-(3,5-difluorophenyl)-2-hydroxyacetamido)-2-methylphenyl)-N-(2-hydroxyethyl) nicotinamide]
IC50 (PERK): 2 to 3 µM
pIC50 [1]: 6.60 to 7.00

Structure (SMILES): Cc1cc(NC(=O)C(O)c2cccc(Cl)c2)ccc1-c1cnc(N)c(C(=O)NC(C)C)c1 (stereo not shown) [Example 69, 2-amino-5-(4-(2-(3-chlorophenyl)-2-hydroxyacetamido)-2-methylphenyl)-N-isopropylnicotinamide]
IC50 (PERK): 0.026 to 0.05 µM
pIC50 [1]: 7.60 to 9.00

Structure (SMILES): CCNC(=O)c1cc(-c2ccc(NC(=O)C(O)c3cc(F)cc(F)c3)cc2CC)cnc1N (stereo not shown) [Example 98, 2-amino-5-(4-(2-(3,5-difluorophenyl)-2-hydroxyacetamido)-2-ethylphenyl)-N-ethylnicotinamide]
IC50 (PERK): 0.001 to 0.025 µM
pIC50 [1]: 7.60 to 9.00

Structure (SMILES): COc1cccc(CC(=O)Nc2ccc(-c3cnc(N)c(C(=O)NC(C)C)c3)c(C)c2)c1 [Example 193, 2-amino-N-isopropyl-5-(4-(2-(3-methoxyphenyl)acetamido)-2-methylphenyl) nicotinamide]
IC50 (PERK): 0.501 to 1 µM
pIC50 [1]: 7.00 to 7.29

Structure (SMILES): Cc1c(-c2cnc(N)c(C(=O)NC3COC3)c2)ccc(NC(=O)C(O)c2cc(F)cc(F)c2)c1F (stereo not shown) [Example 122, 2-amino-5-(4-(2-(3,5-difluorophenyl)-2-hydroxyacetamido)-3-fluoro-2-methylphenyl)-N-(oxetan-3-yl)nicotinamide]
IC50 (PERK): 0.501 to 1 µM
pIC50 [1]: 6.30 to 6.60

Structure (SMILES): CC(C)NC(=O)c1cc(-c2ccc(NC(=O)C(O)c3cc(F)cc(F)c3)cc2)cnc1N (stereo not shown) [Example 81, 2-amino-5-(4-(2-(3,5-difluorophenyl)-2-hydroxyacetamido)phenyl)-N-isopropylnicotinamide]
IC50 (PERK): 4 to 5 µM
pIC50 [1]: 6.60 to 7.00

Further lines, results first:

IC50 (PERK): 0.026 to 0.05 µM
pIC50 [1]: 7.60 to 9.00
Structure (SMILES): CCNC(=O)c1nc(-c2ccc(NC(=O)C(O)c3cc(F)cc(F)c3)cc2CC)cnc1N (stereo not shown) [Example 153, 3-amino-6-(4-(2-(3,5-difluorophenyl)-2-hydroxyactamido)-2-ethylphenyl)-N-ethylpyrazine-2-carboxamide]

IC50 (PERK): 0.501 to 1 µM
pIC50 [1]: 6.60 to 7.00
Structure (SMILES): Cc1cc(NC(=O)C(O)c2cc(F)cc(F)c2)ccc1-c1cncc(C(=O)NC(C)C)c1 (stereo not shown) [Example 179, 5-(4-(2-(3,5-difluorophenyl)-2-hydroxyacetamido)-2-methylphenyl)-N-isopropylnicotinamide]

IC50 (PERK): 0.101 to 0.25 µM
pIC50 [1]: 6.60 to 7.00
Structure (SMILES): CCc1cc(NC(=O)C(O)c2cc(F)cc(F)c2)ccc1-c1cnc(N)c(C(=O)NC(C)C)c1 (single isomer, unassigned) [Example 39, 2-amino-5-(4-(2-(3,5-difluorophenyl)-2-hydroxyacetamido)-2-ethylpehnyl)-N-isopropylnicotinamide]

IC50 (PERK): 0.101 to 0.25 µM
pIC50 [1]: 7.30 to 7.59
Structure (SMILES): Cc1cc(NC(=O)C(O)c2cc(F)cc(F)c2)ccc1-c1cncc(C(=O)NC(C)C)c1 (stereo not shown) [Example 178, 5-(4-(2-(3,5-difluorophenyl)-2-hydroxyacetamido)-2-methylphenyl)-N-isopropylnicotinamide]

IC50 (PERK): 0.026 to 0.05 µM
pIC50 [1]: 7.60 to 9.00
Structure (SMILES): Cc1cc(NC(=O)C(O)c2cc(F)cc(F)c2)ccc1-c1cnc(N)c(C(=O)NC(C)C)n1 (stereo not shown) [Example 134, 3-amino-6-(4-(2-(3,5-difluorophenyl)-2-hydroxyacetamido)-2-methylphenyl)-N-isopropylpyrazine-2-carboxamide]

IC50 (PERK): 0.101 to 0.25 µM
pIC50 [1]: 7.30 to 7.59
Structure (SMILES): Cc1cc(NC(=O)C(O)c2cc(F)cc(F)c2)ccc1-c1cnc(N)c(C(=O)NC(C)C)c1 (stereo not shown) [Example 9, 2-amino-5-(4-(2-(3,5-difluorophenyl)-2-hydroxyacetamido)-2-methylphenyl)-N-isopropyl nicotinamide]

IC50 (PERK): 0.101 to 0.25 µM
pIC50 [1]: 7.30 to 7.59
Structure (SMILES): Cc1cc(NC(=O)C(O)c2cc(F)cc(F)c2)ccc1-c1cnc(N)c(C(=O)NCCN(C)C)n1 (stereo not shown) [Example 146, 3-amino-6-(4-(2-(3,5-difluorophenyl)-2-hydroxyacetamido)-2-methylphenyl)-N-(2-(dimethylamino)ethyl)pyrazine-2-carboxamide]

IC50 (PERK): 0.101 to 0.25 µM
pIC50 [1]: 6.60 to 7.00
Structure (SMILES): CCc1cc(NC(=O)C(O)c2cc(F)cc(F)c2)ccc1-c1cnc(N)c(C(=O)NC(C)C)n1 (stereo not shown) [Example 152, 3-amino-6-(4-(2-(3,5-difluorophenyl)-2-hydroxyacetamido)-2-ethylphenyl)-N-isopropylpyrazine-2-carboxamide]
